{
  "source": "the supplement of paper PMC10307832",
  "assay_in_all_cases": "relative viability (nuclei count vs DMSO), 5 days (fraction); higher = more cells survive",
  "key": {"NCI-H1666": {"system": "NCI-H1666", "procedure,_shortened": "(§1)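 The day after seeding in 1536-well plates, lung cancer cell lines were treated by pin tool with a single drug, or with a fixed anchor-drug dose together with five library-drug doses (not always all listed) in √10 steps. After 5 days, a combined fix-and-stain solution (final 0.05% Triton X-100, 1% formaldehyde, 1 ug/ml Hoechst) was added. Nuclei counted on 4× images gave relative viability as treated counts over vehicle counts, reported as the median of duplicate plates.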"}, "NCI-H2347": {"system": "NCI-H2347", "procedure,_shortened": "as §1"}, "NCI-H838": {"system": "NCI-H838", "procedure,_shortened": "as §1"}, "NCI-H1975": {"system": "NCI-H1975", "procedure,_shortened": "as §1"}, "NCI-H358": {"system": "NCI-H358", "procedure,_shortened": "as §1"}, "HARA": {"system": "HARA", "procedure,_shortened": "as §1"}, "LU99A": {"system": "LU99A", "procedure,_shortened": "as §1"}, "NCI-H1734": {"system": "NCI-H1734", "procedure,_shortened": "as §1"}, "HCC-366": {"system": "HCC-366", "procedure,_shortened": "as §1"}, "PC-3 [JPC-3]": {"system": "PC-3 [JPC-3]", "procedure,_shortened": "as §1"}, "NCI-H3122": {"system": "NCI-H3122", "procedure,_shortened": "as §1"}, "NCI-H2405": {"system": "NCI-H2405", "procedure,_shortened": "as §1"}, "LXF-289": {"system": "LXF-289", "procedure,_shortened": "as §1"}, "NCI-H661": {"system": "NCI-H661", "procedure,_shortened": "as §1"}, "NCI-H650": {"system": "NCI-H650", "procedure,_shortened": "as §1"}, "NCI-H1792": {"system": "NCI-H1792", "procedure,_shortened": "as §1"}, "HCC-15": {"system": "HCC-15", "procedure,_shortened": "as §1"}, "NCI-H460": {"system": "NCI-H460", "procedure,_shortened": "as §1"}, "NCI-H1944": {"system": "NCI-H1944", "procedure,_shortened": "as §1"}, "SW 1573": {"system": "SW 1573", "procedure,_shortened": "as §1"}, "NCI-H1793": {"system": "NCI-H1793", "procedure,_shortened": "as §1"}},
  "data": [
    {"smiles": "Nc1cccc2c1CN(C1CCC(=O)NC1=O)C2=O", "note": "(centres undefined) [Lenalidomide] + Nc1ncn([C@H]2C[C@H](O)[C@@H](CO)O2)c(=O)n1 [Decitabine] (partner 2 µM)", "values": [
      {"measurement": "relative viability", "setting": "NCI-H1666; first compound 0.253 µM", "result": 0.791},
      {"measurement": "relative viability", "setting": "NCI-H1666; first compound 0.8 µM", "result": 0.528},
      {"measurement": "relative viability", "setting": "NCI-H1666; first compound 2.53 µM", "result": 0.772},
      {"measurement": "relative viability", "setting": "NCI-H1666; first compound 8 µM", "result": 0.647},
      {"measurement": "relative viability", "setting": "NCI-H2347; first compound 0.253 µM", "result": 0.616},
      {"measurement": "relative viability", "setting": "NCI-H2347; first compound 0.8 µM", "result": 0.617},
      {"measurement": "relative viability", "setting": "NCI-H2347; first compound 2.53 µM", "result": 0.624},
      {"measurement": "relative viability", "setting": "NCI-H2347; first compound 8 µM", "result": 0.566},
      {"measurement": "relative viability", "setting": "NCI-H838; first compound 0.253 µM", "result": 0.483},
      {"measurement": "relative viability", "setting": "NCI-H838; first compound 0.8 µM", "result": 0.404},
      {"measurement": "relative viability", "setting": "NCI-H838; first compound 2.53 µM", "result": 0.527},
      {"measurement": "relative viability", "setting": "NCI-H838; first compound 8 µM", "result": 0.491},
      {"measurement": "relative viability", "setting": "NCI-H1975; first compound 0.253 µM", "result": 0.414},
      {"measurement": "relative viability", "setting": "NCI-H1975; first compound 0.8 µM", "result": 0.334},
      {"measurement": "relative viability", "setting": "NCI-H1975; first compound 2.53 µM", "result": 0.421},
      {"measurement": "relative viability", "setting": "NCI-H1975; first compound 8 µM", "result": 0.356},
      {"measurement": "relative viability", "setting": "NCI-H358; first compound 0.8 µM", "result": 0.228},
      {"measurement": "relative viability", "setting": "NCI-H358; first compound 2.53 µM", "result": 0.232},
      {"measurement": "relative viability", "setting": "NCI-H358; first compound 8 µM", "result": 0.22},
      {"measurement": "relative viability", "setting": "HARA; first compound 0.253 µM", "result": 0.597},
      {"measurement": "relative viability", "setting": "HARA; first compound 2.53 µM", "result": 0.538},
      {"measurement": "relative viability", "setting": "HARA; first compound 8 µM", "result": 0.561},
      {"measurement": "relative viability", "setting": "LU99A; first compound 0.253 µM", "result": 0.894},
      {"measurement": "relative viability", "setting": "LU99A; first compound 0.8 µM", "result": 0.823},
      {"measurement": "relative viability", "setting": "LU99A; first compound 2.53 µM", "result": 0.868},
      {"measurement": "relative viability", "setting": "LU99A; first compound 8 µM", "result": 0.702},
      {"measurement": "relative viability", "setting": "NCI-H1734; first compound 0.253 µM", "result": 0.508},
      {"measurement": "relative viability", "setting": "NCI-H1734; first compound 0.8 µM", "result": 0.478},
      {"measurement": "relative viability", "setting": "NCI-H1734; first compound 2.53 µM", "result": 0.568},
      {"measurement": "relative viability", "setting": "NCI-H1734; first compound 8 µM", "result": 0.485},
      {"measurement": "relative viability", "setting": "HCC-366; first compound 0.253 µM", "result": 0.337},
      {"measurement": "relative viability", "setting": "HCC-366; first compound 0.8 µM", "result": 0.377},
      {"measurement": "relative viability", "setting": "HCC-366; first compound 2.53 µM", "result": 0.366},
      {"measurement": "relative viability", "setting": "HCC-366; first compound 8 µM", "result": 0.354},
      {"measurement": "relative viability", "setting": "PC-3 [JPC-3]; first compound 0.253 µM", "result": 0.848},
      {"measurement": "relative viability", "setting": "PC-3 [JPC-3]; first compound 0.8 µM", "result": 0.807},
      {"measurement": "relative viability", "setting": "PC-3 [JPC-3]; first compound 2.53 µM", "result": 0.874},
      {"measurement": "relative viability", "setting": "PC-3 [JPC-3]; first compound 8 µM", "result": 0.878},
      {"measurement": "relative viability", "setting": "NCI-H3122; first compound 0.253 µM", "result": 0.375},
      {"measurement": "relative viability", "setting": "NCI-H3122; first compound 0.8 µM", "result": 0.536},
      {"measurement": "relative viability", "setting": "NCI-H3122; first compound 2.53 µM", "result": 0.381},
      {"measurement": "relative viability", "setting": "NCI-H3122; first compound 8 µM", "result": 0.386},
      {"measurement": "relative viability", "setting": "NCI-H2405; first compound 0.253 µM", "result": 0.719},
      {"measurement": "relative viability", "setting": "NCI-H2405; first compound 0.8 µM", "result": 0.817},
      {"measurement": "relative viability", "setting": "NCI-H2405; first compound 2.53 µM", "result": 0.782},
      {"measurement": "relative viability", "setting": "NCI-H2405; first compound 8 µM", "result": 0.632},
      {"measurement": "relative viability", "setting": "LXF-289; first compound 0.253 µM", "result": 0.388},
      {"measurement": "relative viability", "setting": "LXF-289; first compound 0.8 µM", "result": 0.351},
      {"measurement": "relative viability", "setting": "LXF-289; first compound 2.53 µM", "result": 0.393},
      {"measurement": "relative viability", "setting": "LXF-289; first compound 8 µM", "result": 0.335},
      {"measurement": "relative viability", "setting": "NCI-H661; first compound 0.253 µM", "result": 0.568},
      {"measurement": "relative viability", "setting": "NCI-H661; first compound 0.8 µM", "result": 0.548},
      {"measurement": "relative viability", "setting": "NCI-H661; first compound 2.53 µM", "result": 0.621},
      {"measurement": "relative viability", "setting": "NCI-H661; first compound 8 µM", "result": 0.568},
      {"measurement": "relative viability", "setting": "NCI-H650; first compound 0.253 µM", "result": 0.312},
      {"measurement": "relative viability", "setting": "NCI-H650; first compound 0.8 µM", "result": 0.349},
      {"measurement": "relative viability", "setting": "NCI-H650; first compound 2.53 µM", "result": 0.351},
      {"measurement": "relative viability", "setting": "NCI-H650; first compound 8 µM", "result": 0.332},
      {"measurement": "relative viability", "setting": "NCI-H1792; first compound 0.253 µM", "result": 0.568},
      {"measurement": "relative viability", "setting": "NCI-H1792; first compound 0.8 µM", "result": 0.454},
      {"measurement": "relative viability", "setting": "NCI-H1792; first compound 2.53 µM", "result": 0.541},
      {"measurement": "relative viability", "setting": "NCI-H1792; first compound 8 µM", "result": 0.384},
      {"measurement": "relative viability", "setting": "HCC-15; first compound 0.253 µM", "result": 0.766},
      {"measurement": "relative viability", "setting": "HCC-15; first compound 2.53 µM", "result": 0.763},
      {"measurement": "relative viability", "setting": "HCC-15; first compound 8 µM", "result": 0.594},
      {"measurement": "relative viability", "setting": "NCI-H460; first compound 0.253 µM", "result": 0.402},
      {"measurement": "relative viability", "setting": "NCI-H460; first compound 0.8 µM", "result": 0.476},
      {"measurement": "relative viability", "setting": "NCI-H460; first compound 2.53 µM", "result": 0.64},
      {"measurement": "relative viability", "setting": "NCI-H460; first compound 8 µM", "result": 0.649},
      {"measurement": "relative viability", "setting": "NCI-H1944; first compound 0.253 µM", "result": 0.446},
      {"measurement": "relative viability", "setting": "NCI-H1944; first compound 2.53 µM", "result": 0.457},
      {"measurement": "relative viability", "setting": "NCI-H1944; first compound 8 µM", "result": 0.393},
      {"measurement": "relative viability", "setting": "SW 1573; first compound 0.253 µM", "result": 0.536},
      {"measurement": "relative viability", "setting": "SW 1573; first compound 0.8 µM", "result": 0.625},
      {"measurement": "relative viability", "setting": "SW 1573; first compound 2.53 µM", "result": 0.591},
      {"measurement": "relative viability", "setting": "SW 1573; first compound 8 µM", "result": 0.542},
      {"measurement": "relative viability", "setting": "NCI-H1793; first compound 0.253 µM", "result": 0.464},
      {"measurement": "relative viability", "setting": "NCI-H1793; first compound 2.53 µM", "result": 0.535},
      {"measurement": "relative viability", "setting": "NCI-H1793; first compound 8 µM", "result": 0.44}
    ]}
  ]
}
